Test results taken from US9073858B2, “Methods of targeted drug development” (priority 2010, dated 2015).
pIC50: −log10 of the molar value. Like-named read-outs stand apart in the source and are kept apart here.

Assays:
H1975 cells = assay: H1975 Cell Proliferation Assay (MTT); format: cell-based; conditions: Homo sapiens, read-out: IC50 Value (μM) H1975 Cells
Protocol: (§1) Cell proliferation is determined using the MTT assay. The MTT cell proliferation assay is a colorimetric assay system which measures the reduction of a tetrazolium component (MTT) into an insoluble formazan product by the mitochondria of viable cells. After incubation of the cells with the MTT reagent, DMSO is added to solubilize the colored crystals and the samples read at a wavelength of 560 nm. The amount of color produced is directly proportional to the number of viable cells.
(§2) 3-(4,5-Dimethylthiazol-2-yl)-2,5-diphenyltetrazolium Bromide (MTT) dye (Aesar, cat no. L11939) was prepared at 5 mg/ml in PBS. To each well, 20 μl of MTT solution was added to existing media and mixed thoroughly with 5 mins of gentle shaking at room temperature. Plates were incubated at 37° C., 5% CO2 for approximately 2 hrs. After 2-3 hrs incubation, media was aspirated out and plates were patted dry. […] Plates were incubated at 37° C., 5% CO2 for 10 min and mix thoroughly with 5 mins of gentle shaking at room temperature. Plates were read on the PolarStar plate reader at 560 nm. Percent (%) inhibition was calculated as 100%−(OD560 nm experimental-blank)×100%/OD560 nm control-blank. Blank=wells+serum free media+0.5% DMSO. Experimental=wells+cells+treatment+0.5% DMSO. Control=wells+cells+0.5% DMSO. IC50 values were calculated in GraphPad Prism using non-linear regression curve fitting. All statistical analyses was done either in GraphPad Prism or Microsoft Excel.
Briefly, compounds are added to cells plated in 96-well plates. The cells are allowed to grow for 72 hours before MTT treatment. The effect of the compounds on cell proliferation is analyzed using GraphPad Prism.

A549 cells = assay: A549 Cell Proliferation Assay (MTT); format: cell-based; conditions: Homo sapiens; for IC50: read-out: IC50 Value (μM) A549 Cells
Protocol: Cell proliferation is determined using the MTT assay. The MTT cell proliferation assay is a colorimetric assay system which measures the reduction of a tetrazolium component (MTT) into an insoluble formazan product by the mitochondria of viable cells. After incubation of the cells with the MTT reagent, DMSO is added to solubilize the colored crystals and the samples read at a wavelength of 560 nm. The amount of color produced is directly proportional to the number of viable cells. […] L11939) was prepared at 5 mg/ml in PBS. […] Plates were read on the PolarStar plate reader at 560 nm. […] IC50 values were calculated in GraphPad Prism using non-linear regression curve fitting. All statistical analyses was done either in GraphPad Prism or Microsoft Excel. […] Briefly, compounds are added to cells plated in 96-well plates. The cells are allowed to grow for 72 hours before MTT treatment. The effect of the compounds on cell proliferation is analyzed using GraphPad Prism. A549 cells are a non-small cell lung cancer cell line that have wild type EGFR and p53 but have point mutations in KRAS gene which transform it into an oncogene. […] SH30071.03, lot no. ATB31500), 1% Pen Strep (Gibco, cat no. […] On day 2, working solutions of compounds at 200× were prepared. […] Plates were incubated for 72 hours before analyzing them with MTT (as described above).

[1] = Stability on incubation with human liver microsomes (HLM); format: in vitro ADME; conditions: percentage left after incubation with human liver microsomes for 30 minutes
Protocol: (§3) Stability of hydroxyquinoline analogs were determined (see e.g., TABLE 18). MLM represents the percentage left after incubation with mouse liver microsomes for 30 minutes. HLM represents the percentage left after incubation with human liver microsomes for 30 minutes.
(§4) Stability of analogs having a benzaldehyde derived ring were determined (see e.g., TABLE 18). MLM represents the percentage left after incubation with mouse liver microsomes for 30 minutes. HLM represents the percentage left after incubation with human liver microsomes for 30 minutes.

[2] = Stability on incubation with mouse liver microsomes (MLM); format: in vitro ADME; conditions: percentage left after incubation with mouse liver microsomes for 30 minutes
Protocol: as §3, §4

HT-29 cells = assay: HT-29 Cell Proliferation Assay (MTT); format: cell-based; conditions: Homo sapiens, read-out: IC50 Value (μM) HT-29 Cells
Protocol: as §1, §2
Briefly, compounds are added to cells plated in 96-well plates. […] The effect of the compounds on cell proliferation is analyzed using GraphPad Prism.
HT-29 cells are a colon cancer cell line that is utilized to assess the ability of compounds to inhibit the proliferation of cells in tumors of the colon.
For the HT-29 cell proliferation assay, on day 1, HT-29 cells are seeded at 3,000 cells/well in 100 μl media containing 10% FBS, 1× Pen-Strep, and 1× L-Glutamine in 96 well, tissue culture-treated plates. […] Working solutions of compounds were prepared (at […] in 100% DMSO). To 200 μl media, 20 μl of a 5× compound (diluted in plain media) was added for a final DMSO concentration of 0.5%. […] On day 5, plates were analyzed for cell growth using the MTT assay.

SMILES	IC50 (H1975 cells; NCI-H1975, 72 h)	IC50 (A549 cells; A549, 72 h)	IC50 (HT-29 cells; HT-29, 72 h)	also measured
Oc1c(C(Nc2ccc(C(F)(F)F)cn2)c2ccc(Cl)c(Cl)c2)ccc2cccnc12 (stereo not shown) [AD4-13030]	0.22 µM	0.17 µM	–	–
Oc1c(C(Nc2ccc(C(F)(F)F)cn2)c2ccc(C(F)(F)F)cc2F)ccc2cccnc12 (stereo not shown) [AD4-13031]	0.24 µM	0.12 µM	–	HLM % Remaining@ 30 Min [1]: 93%; MLM % Remaining@ 30 Min [2]: 87%
Oc1c(C(Nc2ccc(C(F)(F)F)cn2)c2ccc(Cl)c(C(F)(F)F)c2)ccc2cccnc12 (stereo not shown) [AD4-13032]	0.21 µM	0.17 µM	–	–
Oc1c(C(Nc2ccc(C(F)(F)F)cn2)c2ccc(Cl)cc2Cl)ccc2cccnc12 (stereo not shown) [AD4-13033]	0.23 µM	0.13 µM	–	HLM % Remaining@ 30 Min [1]: 100%; MLM % Remaining@ 30 Min [2]: 84%
Oc1c(C(Nc2cc(Cl)ccn2)c2ccc(C(F)(F)F)cc2F)ccc2cccnc12 (stereo not shown) [AD4-13046]	0.12 µM	0.16 µM	–	–
Oc1c(C(Nc2cc(Cl)ccn2)c2ccc(C(F)(F)F)c(F)c2)ccc2cccnc12 (stereo not shown) [AD4-13048]	0.17 µM	0.18 µM	–	–
Oc1c(C(Nc2ccc(Cl)cn2)c2cc(C(F)(F)F)ccc2Cl)ccc2cccnc12 (stereo not shown) [AD4-13052]	0.24 µM	0.13 µM	–	–
Oc1c(C(Nc2cc(Cl)ccn2)c2cc(C(F)(F)F)ccc2Cl)ccc2cccnc12 (stereo not shown) [AD4-13060]	0.58 µM	0.19 µM	–	–
Cc1cccc(NC(c2ccc(Cl)c(Cl)c2)c2cc(Cl)c3cccnc3c2O)n1 (stereo not shown) [AD4-13081]	–	–	–	IC50 (H1975 cells; NCI-H1975, MTT, 72 hours): 0.33 µM; IC50 (A549 cells; A549, MTT, 72 hours): 0.17 µM; IC50 (HT-29 cells; HT-29, MTT, 72 hrs): 6.2 µM
Cc1cccc(NC(c2cc(Cl)ccc2Cl)c2ccc3ccc(C)nc3c2O)n1 (stereo not shown) [AD4-13090]	–	–	–	IC50 (H1975 cells; NCI-H1975, MTT, 72 hours): 1.3 µM; IC50 (A549 cells; A549, MTT, 72 hours): 0.16 µM; IC50 (HT-29 cells; HT-29, MTT, 72 hrs): 3.7 µM
Cc1ccnc(NC(c2ccc3cccnc3c2O)c2c(F)c(F)c(OCC(F)(F)F)c(F)c2F)c1 (stereo not shown) [AD4-13092]	0.21 µM	0.16 µM	3.9 µM	–
Cc1cc(Cl)cnc1NC(c1ccc(Cl)c(Cl)c1)c1ccc2cccnc2c1O (stereo not shown) [AD4-13119]	0.12 µM	0.18 µM	1.5 µM	–
Cc1cc(NC(c2ccc(C(F)(F)F)cc2)c2ccc3cccnc3c2O)ncc1Cl (stereo not shown) [AD4-13121]	0.33 µM	0.18 µM	1.8 µM	–
Cc1cc(NC(c2ccc(Cl)cc2Cl)c2ccc3cccnc3c2O)ncc1Cl (stereo not shown) [AD4-13123]	0.36 µM	0.12 µM	–	HLM % Remaining@ 30 Min [1]: 84%; MLM % Remaining@ 30 Min [2]: 30%
Cc1cc(NC(c2ccc(C(F)(F)F)cc2C(F)(F)F)c2ccc3cccnc3c2O)ncc1Cl (stereo not shown) [AD4-13124]	0.97 µM	0.1 µM	1.5 µM	pIC50 (A549 cells; A549, read-out: IC50, cell proliferation in A549 or H1975 cells): ≥ 7.00
Cc1cc(Cl)cnc1NC(c1ccc2cccnc2c1O)c1c(F)cccc1Cl (stereo not shown) [AD4-13135]	0.21 µM	0.18 µM	0.79 µM	–

SMILES	IC50 (H1975 cells; NCI-H1975, 72 h)	IC50 (A549 cells; A549, 72 h)	IC50 (HT-29 cells; HT-29, 72 h)	also measured
Oc1c(C(Nc2ncc(F)cc2F)c2c(Cl)cccc2Cl)ccc2cccnc12 (stereo not shown) [AD4-13138]	0.3 µM	0.17 µM	1.1 µM	–
Cc1cc(Cl)cnc1NC(c1ccc2cccnc2c1O)c1c(Cl)cccc1Cl (stereo not shown) [AD4-13142]	0.95 µM	0.14 µM	3.1 µM	–
Oc1c(C(Nc2ncc(Cl)cc2F)c2cccc(C(F)(F)F)c2)ccc2cccnc12 (stereo not shown) [AD4-13145]	1.7 µM	0.16 µM	2.1 µM	–
Oc1c(C(Nc2ncc(F)cc2F)c2ccc(F)cc2Cl)ccc2cccnc12 (stereo not shown) [AD4-13146]	0.24 µM	0.14 µM	2 µM	–
Cc1cc(NC(c2ccc3cccnc3c2O)c2c(Cl)cccc2Cl)ncc1Cl (stereo not shown) [AD4-13148]	0.31 µM	0.13 µM	1.1 µM	–
Cc1cc(Cl)cnc1NC(c1ccc(Cl)cc1)c1ccc2cccnc2c1O (stereo not shown) [AD4-13154]	0.15 µM	0.17 µM	0.76 µM	–
Cc1cc(Cl)cnc1NC(c1cccc(Cl)c1)c1ccc2cccnc2c1O (stereo not shown) [AD4-13159]	0.13 µM	0.11 µM	1.2 µM	–
Cc1cc(Cl)cnc1NC(c1cc(Cl)cc(Cl)c1Cl)c1ccc2cccnc2c1O (stereo not shown) [AD4-13167]	0.31 µM	0.1 µM	1.5 µM	–
Oc1c(C(Nc2ncc(F)cc2F)c2ccc(Cl)cc2Cl)ccc2cccnc12 (stereo not shown) [AD4-13175]	3.8 µM	0.17 µM	2 µM	–
Oc1c(C(Nc2cc(Cl)c(Cl)cn2)c2cc(Cl)cc(Cl)c2Cl)ccc2cccnc12 (stereo not shown) [AD4-13180]	0.86 µM	0.1 µM	1.7 µM	–
Oc1c(C(Nc2ncc(F)cc2F)c2ccc(Cl)c(Cl)c2)ccc2cccnc12 (stereo not shown) [AD4-13182]	1.8 µM	0.19 µM	8.3 µM	–
Oc1c(C(Nc2cc(Cl)c(Cl)cn2)c2ccc(Cl)c(C(F)(F)F)c2)ccc2cccnc12 (stereo not shown) [AD4-13184]	0.24 µM	0.11 µM	2.2 µM	–
Oc1c(C(Nc2cc(Cl)c(Cl)cn2)c2ccc(Cl)cc2)ccc2cccnc12 (stereo not shown) [AD4-13187]	0.26 µM	0.15 µM	1.3 µM	–
Oc1c(C(Nc2cc(Cl)c(Cl)cn2)c2cccc(Cl)c2)ccc2cccnc12 (stereo not shown) [AD4-13188]	0.28 µM	0.14 µM	0.86 µM	–
Cc1cc(Cl)ccc1NC(c1ccc(Cl)c(Cl)c1)c1ccc2cccnc2c1O (stereo not shown) [AD4-13204]	–	–	–	IC50 (H1975 cells; NCI-H1975, MTT, 72 hours): 1.4 µM; IC50 (A549 cells; A549, MTT, 72 hours): 0.19 µM; IC50 (HT-29 cells; HT-29, MTT, 72 hrs): 4.5 µM
Cc1nc(NC(c2cc(Cl)cc(Cl)c2Cl)c2ccc3cccnc3c2O)ccc1Cl (stereo not shown) [AD4-13209]	0.14 µM	0.17 µM	2.3 µM	–
